Measurements published in ChEMBL document CHEMBL3627684, “Discovery of spirocyclic-diamine inhibitors of mammalian acetyl CoA-carboxylase” (Bioorg Med Chem Lett, 2015).
pIC50: −log10 of the molar value.

Assays:
[1] = Inhibition of acetyl-CoA carboxylase in rat cryopreserved hepatocytes assessed as suppression of de novo lipogenesis; type: cell-based; details: hepatocyte
[2] = Intrinsic clearance in human liver microsomes
Acetyl-CoA carboxylase 1 = Acetyl-CoA carboxylase 1 (Rattus norvegicus, UniProt P11497); assay: Inhibition of rat liver ACC1 preincubated for 10 mins followed by acetyl-CoA/KHCO3/[14C]-NaHCO3/ATP addition measured after 20 mins by liquid scintillation counting analysis
Acetyl-CoA carboxylase 2 = Acetyl-CoA carboxylase 2 (Homo sapiens, UniProt O00763); assay: Inhibition of recombinant human ACC2 expressed in CHO cells by fluorescence polarization assay
[3] = Plasma clearance in rat; type: ADME, organism-based

Sequence of Acetyl-CoA carboxylase 2 (O00763 whole entry): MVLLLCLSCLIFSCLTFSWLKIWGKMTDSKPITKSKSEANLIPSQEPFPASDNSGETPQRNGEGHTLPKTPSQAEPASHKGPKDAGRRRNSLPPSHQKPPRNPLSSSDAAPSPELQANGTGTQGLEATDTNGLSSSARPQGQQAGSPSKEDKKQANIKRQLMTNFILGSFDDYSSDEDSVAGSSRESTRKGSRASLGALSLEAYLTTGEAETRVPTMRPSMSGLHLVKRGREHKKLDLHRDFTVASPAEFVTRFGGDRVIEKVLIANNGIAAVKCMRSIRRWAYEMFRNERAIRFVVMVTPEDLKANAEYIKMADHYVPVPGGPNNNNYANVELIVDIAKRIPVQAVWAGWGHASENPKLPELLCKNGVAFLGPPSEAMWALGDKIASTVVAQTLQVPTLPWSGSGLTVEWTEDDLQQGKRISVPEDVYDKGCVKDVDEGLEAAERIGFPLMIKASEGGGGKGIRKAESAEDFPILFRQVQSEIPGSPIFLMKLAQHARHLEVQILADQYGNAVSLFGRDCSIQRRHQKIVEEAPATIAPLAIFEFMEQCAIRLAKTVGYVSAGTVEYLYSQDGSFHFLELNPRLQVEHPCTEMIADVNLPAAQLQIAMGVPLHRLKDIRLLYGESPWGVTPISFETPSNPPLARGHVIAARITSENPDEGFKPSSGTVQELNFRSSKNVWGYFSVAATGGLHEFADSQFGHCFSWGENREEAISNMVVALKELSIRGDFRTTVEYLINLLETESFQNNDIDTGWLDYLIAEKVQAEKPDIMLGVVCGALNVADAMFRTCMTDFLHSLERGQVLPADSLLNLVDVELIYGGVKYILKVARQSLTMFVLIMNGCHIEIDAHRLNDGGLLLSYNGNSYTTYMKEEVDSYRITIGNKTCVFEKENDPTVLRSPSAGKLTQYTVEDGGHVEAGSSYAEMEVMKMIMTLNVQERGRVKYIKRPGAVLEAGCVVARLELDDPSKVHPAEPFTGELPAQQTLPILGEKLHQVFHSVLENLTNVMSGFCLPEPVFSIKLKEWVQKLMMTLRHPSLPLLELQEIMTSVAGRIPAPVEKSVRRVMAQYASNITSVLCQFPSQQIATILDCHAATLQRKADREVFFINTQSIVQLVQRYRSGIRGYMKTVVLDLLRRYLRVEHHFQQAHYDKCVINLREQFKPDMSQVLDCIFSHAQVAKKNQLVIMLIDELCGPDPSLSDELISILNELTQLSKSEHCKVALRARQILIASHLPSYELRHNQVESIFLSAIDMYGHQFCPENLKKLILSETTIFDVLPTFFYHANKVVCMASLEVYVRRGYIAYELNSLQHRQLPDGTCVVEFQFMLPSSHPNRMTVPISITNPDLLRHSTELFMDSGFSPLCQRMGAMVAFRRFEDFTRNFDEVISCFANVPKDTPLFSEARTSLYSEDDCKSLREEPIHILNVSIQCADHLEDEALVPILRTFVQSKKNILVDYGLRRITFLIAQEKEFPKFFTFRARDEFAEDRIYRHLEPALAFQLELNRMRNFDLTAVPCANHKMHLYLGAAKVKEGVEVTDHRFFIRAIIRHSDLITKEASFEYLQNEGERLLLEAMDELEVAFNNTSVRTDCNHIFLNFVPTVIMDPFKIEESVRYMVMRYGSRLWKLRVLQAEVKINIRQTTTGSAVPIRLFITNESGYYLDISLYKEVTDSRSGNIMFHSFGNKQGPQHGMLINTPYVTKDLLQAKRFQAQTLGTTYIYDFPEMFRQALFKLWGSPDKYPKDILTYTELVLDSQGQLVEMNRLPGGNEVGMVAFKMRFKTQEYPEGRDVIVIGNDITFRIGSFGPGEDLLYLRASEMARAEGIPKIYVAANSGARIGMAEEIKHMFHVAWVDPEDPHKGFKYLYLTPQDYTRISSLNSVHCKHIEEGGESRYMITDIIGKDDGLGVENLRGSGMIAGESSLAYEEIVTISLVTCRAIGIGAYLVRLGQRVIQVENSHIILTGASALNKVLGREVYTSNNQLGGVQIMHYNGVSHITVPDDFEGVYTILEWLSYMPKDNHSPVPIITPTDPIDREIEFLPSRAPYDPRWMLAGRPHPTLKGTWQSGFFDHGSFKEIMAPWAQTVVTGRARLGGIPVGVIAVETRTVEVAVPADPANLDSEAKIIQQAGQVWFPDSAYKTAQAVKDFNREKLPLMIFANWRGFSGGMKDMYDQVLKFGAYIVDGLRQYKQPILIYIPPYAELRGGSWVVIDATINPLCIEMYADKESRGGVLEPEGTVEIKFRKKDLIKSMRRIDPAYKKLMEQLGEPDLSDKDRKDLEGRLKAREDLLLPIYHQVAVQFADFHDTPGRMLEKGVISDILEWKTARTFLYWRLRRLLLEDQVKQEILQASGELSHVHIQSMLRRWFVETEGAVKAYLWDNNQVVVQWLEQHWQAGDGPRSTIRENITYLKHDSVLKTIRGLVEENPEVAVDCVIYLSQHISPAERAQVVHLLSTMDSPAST

| SMILES | pIC50 [1] | CLint scaled [2] | pIC50 (Acetyl-CoA carboxylase 1) | pIC50 (Acetyl-CoA carboxylase 2) | clearance [3] |
| --- | --- | --- | --- | --- | --- |
| CC(C)(C)n1cc2c(n1)C(=O)CC1(CCN(C(=O)c3ccc4[nH]ncc4c3)CC1)O2 | 7.03 |  |  |  |  |
| Cc1cc(C(=O)N2CCC3(CCN(C(=O)OC(C)(C)C)CC3)C2)cc2cn[nH]c12 |  | 94 mL/min/kg | 6.00 | 5.66 |  |
| Cc1cc(C(=O)N2CCC3(CCN(C(=O)OC(C)(C)C)C3)CC2)cc2cn[nH]c12 |  | 32 mL/min/kg | 6.29 | 6.00 |  |
| Cc1cc(C(=O)N2CC3(CCN(C(=O)OC(C)(C)C)CC3)C2)cc2cn[nH]c12 |  | 19 mL/min/kg | 6.09 | 5.62 |  |
| Cc1cc(C(=O)N2CCC3(CCN(C(=O)OC(C)(C)C)C3)C2)cc2cn[nH]c12 (stereo not drawn) |  |  | 4.96 | 4.70 |  |
| Cc1cc(C(=O)N2CC3(CN(C(=O)OC(C)(C)C)C3)C2)cc2cn[nH]c12 |  |  | < 4.52 | < 5.00 |  |
| Cc1cc(C(=O)N2CCC3(CCN(C(=O)OC(C)C)C3)CC2)cc2cn[nH]c12 |  |  | 5.80 | 5.35 |  |
| Cc1cc(C(=O)N2CCC3(CCN(C(=O)O[C@H](C)c4ccccc4)C3)CC2)cc2cn[nH]c12 |  | 117 mL/min/kg | 7.19 | 6.59 |  |
| Cc1cc(C(=O)N2CCC3(CC2)CN(C(=O)OC(C)(C)C)C3C)cc2cn[nH]c12 (stereo not drawn) |  | 60 mL/min/kg | 6.62 | 6.05 |  |
| Cc1cc(C(=O)N2CCC3(CC2C)C[C@H](C)N(C(=O)OCC(C)(C)C)C3)cc2cn[nH]c12 (stereo partly drawn) |  |  | 5.66 | 5.26 |  |
| Cc1cc(C(=O)N2CCC3(CC2C)C[C@@H](C)N(C(=O)OCC(C)(C)C)C3)cc2cn[nH]c12 (stereo partly drawn) |  |  | 6.85 | 5.96 |  |
| Cc1cc(C(=O)N2CCC3(CC2)CCN(C(=O)OCC(C)(C)C)[C@H]3C)cc2cn[nH]c12 | 6.52 | 106 mL/min/kg | 7.80 | 6.96 | 52 mL/min/kg |
| Cc1cc(C(=O)N2CCC3(CC2)CCN(C(=O)OCC(C)(C)C)[C@@H]3C)cc2cn[nH]c12 |  |  | 7.59 | 6.70 |  |
| Cc1cc(C(=O)N2CCC3(CCN(C(=O)OC(C)(C)C)C3)CC2C)cc2cn[nH]c12 (stereo in doubt; 3.3.2) |  |  | 5.03 | < 4.77 |  |

The remaining compounds from weak to strong by pIC50 (Acetyl-CoA carboxylase 1), led by results:

| pIC50 [1] | CLint scaled [2] | pIC50 (Acetyl-CoA carboxylase 1) | pIC50 (Acetyl-CoA carboxylase 2) | clearance [3] | SMILES |
| --- | --- | --- | --- | --- | --- |
|  |  | 5.10 | < 4.85 |  | Cc1cc(C(=O)N2CCC3(CCN(C(=O)OC(C)(C)C)C3)CC2C)cc2cn[nH]c12 (stereo in doubt; 3.3.1) |
|  | 46 mL/min/kg | 5.32 | 5.04 |  | Cc1cc(C(=O)N2CCC3(CC2C)CN(C(=O)OC(C)(C)C)C3)cc2cn[nH]c12 (stereo not drawn) |
|  |  | 5.68 | 5.40 |  | Cc1cc(C(=O)N2CCC3(CCN(C(=O)OCc4ccccc4)C3)CC2)cc2cn[nH]c12 |
|  | < 9 mL/min/kg | 6.35 | 6.10 |  | Cc1cc(C(=O)N2CCC3(CC2)CN(C(=O)OC(C)(C)C)C3)cc2cn[nH]c12 |
|  |  | 6.51 | 5.85 |  | Cc1cc(C(=O)N2CCC3(CC2)CN(C(=O)OCC(C)(C)C)C3)cc2cn[nH]c12 |
|  | 64 mL/min/kg | 6.51 | 6.06 |  | Cc1cc(C(=O)N2CCC3(CC2)CN(C(=O)O[C@H](C)c2ccccc2)C3)cc2cn[nH]c12 |
|  | 117 mL/min/kg | 6.66 | 6.10 |  | Cc1cc(C(=O)N2CCC3(CCN(C(=O)OCC(C)(C)C)C3)CC2)cc2cn[nH]c12 |
